Experimental findings from US20260166003A1, “NOVEL APTAMER, AND COMPOSITION FOR COGNITIVE FUNCTION IMPROVEMENT AND ANTI-AGING COMPRISING APTAMER AS ACTIVE INGREDIENT” (NEXMOS CO., LTD, priority 2021, published 2026) are described below.

A short description of series [1]: OPDA assay in gastric acid-like low pH environment. Type of series: physicochemical. The settings on record: pH between 1.4 and 1.6 with hydrochloric acid, hydrogen peroxide, 900 minutes; compared to normal condition; FIG. 3. The procedure: OPDA assay was used to confirm whether the vitamin C oxidation delay effect of aptamin C320 was maintained in a low pH environment similar to gastric acid in order to confirm that the effect of the substance was not reduced or eliminated by the pH environment in the stomach when ingested orally.
Thereafter, hydrogen peroxide was added to prepare an oxidation condition, and at this time, the pH was adjusted to be between 1.4 and 1.6 using hydrochloric acid, and oxidation of L-ascorbic acid was measured by adding an o-phenylenediamine (OPDA), which is a fluorescent dye. The degree of DHA production can be quantitatively analyzed by measuring the amount of fluorescence from DHA-OPDA generated by the reaction of DHA, an oxide of L-ascorbic acid, with OPDA. Under the above conditions, the fluorescence amount of DHA-OPDA was measured every 2 minutes for a total of 900 minutes.

Series [2] is described as follows: OPDA assay of vitamin C oxidation delay. Type of series: biochemical. The settings on record: L-ascorbic acid 0.1%, aptamer 0.001%, hydrogen peroxide, 900 minutes; compared with C332 and other 20 mer aptamers; FIG. 2. The protocol:
In this case, the L-ascorbic acid was mixed at a ratio of 0.1% and the aptamer was mixed at 0.001%. Thereafter, hydrogen peroxide was added to prepare an oxidation condition, and then oxidation of L-ascorbic acid was measured by adding o-phenylenediamine (OPDA), a fluorescent dye. The degree of DHA production may be quantitatively analyzed by measuring the amount of fluorescence from DHA-OPDA generated by the reaction of DHA, an oxide of L-ascorbic acid, with OPDA. Under the above conditions, the amount of fluorescence of DHA-OPDA was measured every 2 minutes for a total of 900 minutes.

For “aptamin C320: 20 mer DNA aptamer, SEQ ID NO: 1, GCCAGTCTCGCGGTGGCGGC, delays oxidation of vitamin C (DNA, backbone and methylation of C not given here)”, the “maintenance of vitamin C oxidation delay effect in acid condition” value in series [1] is reported as “maintained without significantly decreasing in acid condition”. Further, in series [2], the “vitamin C oxidation delay effect (DHA-OPDA fluorescence)” value was “delays the oxidation of vitamin C to the highest extent”.
